# Reference: patent publication US5484773A, “Treatment of antibiotic associated diarrhea” (priority 1994, dated 1996)
# What was measured:
# CDAD or PMC = details: cited from earlier work; for patients in whom diarrhea returns after discontinuing antibiotic treatment: after oral Metronidazole or Vancomycin therapy, ref. [15]; for therapy effective, share of patients who suffer from CDAD or PMC: oral Metronidazole or Vancomycin with removal of offending drug and fluid replacement
# C. difficile toxin A [1] = molecular target: T1, C. difficile toxin A (Clostridioides difficile, UniProt P16154); test: Screening: neutralization of purified toxin A hemagglutination activity by SYNSORBs (Example 1, FIG. 1); assay type: biochemical, Clostridium difficile
# T1 construct: Toxin A was isolated from a toxin producing strain of C. difficile; made in house; host or cells: Clostridium difficile ATCC 43255 (VPI strain 10463), native toxin from culture supernatant, not recombinant
# T1 sequence (P16154 whole entry, looked up): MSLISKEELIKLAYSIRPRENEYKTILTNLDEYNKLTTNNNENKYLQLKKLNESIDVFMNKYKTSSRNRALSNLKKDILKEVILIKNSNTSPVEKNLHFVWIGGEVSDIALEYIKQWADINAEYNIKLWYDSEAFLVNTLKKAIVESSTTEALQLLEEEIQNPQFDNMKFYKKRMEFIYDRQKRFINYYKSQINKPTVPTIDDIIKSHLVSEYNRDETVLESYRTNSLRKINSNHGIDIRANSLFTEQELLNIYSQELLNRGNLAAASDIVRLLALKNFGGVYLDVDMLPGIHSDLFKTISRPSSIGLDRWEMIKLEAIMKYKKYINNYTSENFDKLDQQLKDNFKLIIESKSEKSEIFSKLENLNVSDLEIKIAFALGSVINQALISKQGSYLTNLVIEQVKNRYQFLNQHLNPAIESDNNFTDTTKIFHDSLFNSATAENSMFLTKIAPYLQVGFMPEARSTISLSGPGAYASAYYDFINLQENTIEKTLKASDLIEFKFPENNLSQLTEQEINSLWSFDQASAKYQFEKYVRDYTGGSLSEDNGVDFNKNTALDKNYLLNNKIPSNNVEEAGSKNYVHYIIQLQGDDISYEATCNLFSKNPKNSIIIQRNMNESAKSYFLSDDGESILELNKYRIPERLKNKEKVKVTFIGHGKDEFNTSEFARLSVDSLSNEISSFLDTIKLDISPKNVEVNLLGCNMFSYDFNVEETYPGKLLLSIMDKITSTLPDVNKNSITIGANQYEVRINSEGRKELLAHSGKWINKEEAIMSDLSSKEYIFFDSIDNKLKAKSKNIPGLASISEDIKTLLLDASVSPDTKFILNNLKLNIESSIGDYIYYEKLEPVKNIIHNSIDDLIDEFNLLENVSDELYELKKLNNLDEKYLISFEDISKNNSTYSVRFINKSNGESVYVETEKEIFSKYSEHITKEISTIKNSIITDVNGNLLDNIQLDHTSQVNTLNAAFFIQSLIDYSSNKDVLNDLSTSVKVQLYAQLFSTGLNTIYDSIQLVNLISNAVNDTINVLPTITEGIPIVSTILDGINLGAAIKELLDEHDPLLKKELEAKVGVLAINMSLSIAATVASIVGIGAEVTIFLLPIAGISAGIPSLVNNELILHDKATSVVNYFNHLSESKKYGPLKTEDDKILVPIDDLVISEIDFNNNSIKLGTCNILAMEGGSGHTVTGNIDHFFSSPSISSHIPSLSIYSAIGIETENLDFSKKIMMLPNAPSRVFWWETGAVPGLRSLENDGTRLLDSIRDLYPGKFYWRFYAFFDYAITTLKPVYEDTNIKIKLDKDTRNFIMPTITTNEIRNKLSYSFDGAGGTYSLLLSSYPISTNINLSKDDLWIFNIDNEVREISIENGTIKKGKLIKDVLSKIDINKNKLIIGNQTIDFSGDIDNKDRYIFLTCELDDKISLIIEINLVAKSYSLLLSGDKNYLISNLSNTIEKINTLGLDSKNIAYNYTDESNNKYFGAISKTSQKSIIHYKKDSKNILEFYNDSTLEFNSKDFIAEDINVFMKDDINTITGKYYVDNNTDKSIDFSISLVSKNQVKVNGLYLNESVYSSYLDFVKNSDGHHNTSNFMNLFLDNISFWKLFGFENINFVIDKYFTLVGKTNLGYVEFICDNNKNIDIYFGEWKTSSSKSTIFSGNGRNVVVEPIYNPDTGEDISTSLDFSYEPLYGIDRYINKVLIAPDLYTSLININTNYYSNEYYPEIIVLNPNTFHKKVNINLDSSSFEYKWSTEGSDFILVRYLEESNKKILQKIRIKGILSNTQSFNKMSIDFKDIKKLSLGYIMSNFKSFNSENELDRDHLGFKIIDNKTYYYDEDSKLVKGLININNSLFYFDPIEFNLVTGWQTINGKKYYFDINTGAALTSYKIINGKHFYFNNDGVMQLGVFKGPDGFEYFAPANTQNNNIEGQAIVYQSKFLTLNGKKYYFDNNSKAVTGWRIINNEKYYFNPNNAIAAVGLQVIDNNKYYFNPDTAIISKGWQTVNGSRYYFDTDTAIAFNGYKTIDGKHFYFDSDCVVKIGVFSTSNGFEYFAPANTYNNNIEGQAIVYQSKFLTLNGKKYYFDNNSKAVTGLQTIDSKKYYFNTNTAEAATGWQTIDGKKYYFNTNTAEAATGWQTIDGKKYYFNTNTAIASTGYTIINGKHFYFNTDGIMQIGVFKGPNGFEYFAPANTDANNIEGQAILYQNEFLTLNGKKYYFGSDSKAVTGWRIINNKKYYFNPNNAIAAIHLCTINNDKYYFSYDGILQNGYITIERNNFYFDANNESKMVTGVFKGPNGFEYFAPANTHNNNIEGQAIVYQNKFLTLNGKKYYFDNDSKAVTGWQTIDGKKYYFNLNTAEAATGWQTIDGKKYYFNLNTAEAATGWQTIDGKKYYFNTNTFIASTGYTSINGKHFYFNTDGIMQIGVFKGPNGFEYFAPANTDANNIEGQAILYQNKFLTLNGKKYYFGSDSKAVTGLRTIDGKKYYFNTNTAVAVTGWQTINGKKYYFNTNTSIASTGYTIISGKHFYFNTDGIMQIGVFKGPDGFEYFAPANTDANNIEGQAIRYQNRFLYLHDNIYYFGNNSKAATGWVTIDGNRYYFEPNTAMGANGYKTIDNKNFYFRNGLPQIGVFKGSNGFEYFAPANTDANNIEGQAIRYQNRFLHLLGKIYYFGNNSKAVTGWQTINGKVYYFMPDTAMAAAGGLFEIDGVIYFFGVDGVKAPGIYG
# Procedure: The amount of toxin A adsorption to SYNSORB was determined by assaying supernatants for reduction of endpoint titers in hemagglutination assays relative to controls without any added SYNSORB. […] SYNSORBs 2, 5, 104, 105, and 134 neutralized about 50% of toxin A activity.
# Toxin A was isolated from a toxin producing strain of C. difficile (ATCC 43255, VPI strain 10463) using slight modifications of the method of Sullivan et al..
# C. difficile was grown in 2.3 liter of brain heart infusion broth (BHIB) in anaerobic jars for 72 hours at 37° C. The crude culture was centrifuged at 5,000× g for 20 minutes to sediment the bacteria. The resulting culture supernatant was carefully removed and solid ammonium sulfate (897 g) was added to make 60% saturation. […]
# Fresh rabbit erythrocytes were washed once in phosphate buffered saline (PBS) and resuspended at a concentration of 4% (v/v) in cold PBS. […] After incubating the plate for 4 hours at 4° C., the hemagglutination titer was visually assessed. […]
# After incubation, the SYNSORB was allowed to settle to the bottom of the tubes and the supernatants were carefully removed. Serial 2-fold dilutions of the supernatants were prepared and the hemagglutination endpoint determined as described above.
# The extent of reduction in the endpoint in the presence of SYNSORB was determined by comparing the endpoint with that of controls in which SYNSORB was not added. […]
# C. difficile toxin A [2] = molecular target: T1, C. difficile toxin A; test: Determination of optimal binding conditions (amount and incubation time) for toxin A neutralization, hemagglutination (Example 2, FIGS. 2 and 3); assay type: biochemical, Clostridium difficile; details: about 20 mg SYNSORB per 1 ml toxin A solution (20 mg/ml); 2 hours, 37° C.; FIG. 2
# Procedure: (§1) Fresh rabbit erythrocytes were washed once in phosphate buffered saline (PBS) and resuspended at a concentration of 4% (v/v) in cold PBS. Serial 2-fold dilutions (50 μl) of toxin A-containing solutions were made in cold PBS in U-shaped microtiter wells. An equal volume (50 μl) of rabbit erythrocytes was then added to each well and the microtiter plate was mixed gently. After incubating the plate for 4 hours at 4° C., the hemagglutination titer was visually assessed.
# The amount of SYNSORBS 52 and 90 required for maximal toxin A neutralization was determined by adding 1 ml of a purified toxin A solution to pre-weighed amounts of each SYNSORB in 1.5 ml microcentrifuge tubes. SYNSORB 52 samples were tested using 12.8, 21.6 and 43.3 mg amounts of SYNSORB 52; SYNSORB 90 samples were tested using 12.9, 19.2 and 42.3 mg amounts of SYNSORB 90. Samples were incubated for 2 hours at 37° C. on an end-over-end rotator. […]
# The amount of neutralization in each sample was determined by comparing the endpoint titers of hemagglutination assays from samples with and without SYNSORB.
# The length of incubation time required for optimal neutralization was determined by incubating microcentrifuge tubes containing 1 ml of purified toxin A solution and 20 mg of either SYNSORB 52 or SYNSORB 90. […]
# The degree of neutralization at each incubation period was determined as described above.
# C. difficile toxin A [3] = molecular target: T1, C. difficile toxin A; test: Determination of binding affinity of SYNSORBs to toxin A, hemagglutination titer reduction (Example 4, FIG. 4); parameters: species or system Clostridium difficile; details: rabbit erythrocytes
# Procedure: For the purposes of this invention, oligosaccharide sequences attached to solid supports which bind toxin A means those compositions which reduce endpoint titers from hemagglutination assays by at least 50%.
# as §1
# To assess the binding affinity of various SYNSORBs to toxin A, each SYNSORB was combined with toxin A as described in Example 1. Endpoint titers from hemagglutination assays using rabbit erythocytes were determined as described previously. […] Those SYNSORBs which reduced titers by greater than 50% were deemed to bind toxin A.
compound,measurement,setting,value
Cc1ncc([N+](=O)[O-])n1CCO [Metronidazole],patients in whom diarrhea returns after discontinuing antibiotic treatment,CDAD or PMC,about 20%
same,"therapy effective, share of patients who suffer from CDAD or PMC",CDAD or PMC,about 80%
αGal(1-3)βGal(1-3)βGlcNAc [SYNSORB 134],removal/neutralization of toxin A activity (reduction of endpoint titers in hemagglutination assays),"C. difficile toxin A [1]; purified toxin A 0.5 ml, 10.1 to 17.5 mg SYNSORB, room temperature, 2 hours, rabbit erythrocytes",about 50%
CN[C@H](CC(C)C)C(=O)N[C@H]1C(=O)N[C@@H](CC(N)=O)C(=O)N[C@H]2C(=O)N[C@H]3C(=O)N[C@H](C(=O)N[C@H](C(=O)O)c4cc(O)cc(O)c4-c4cc3ccc4O)[C@H](O)c3ccc(c(Cl)c3)Oc3cc2cc(c3O[C@@H]2O[C@H](CO)[C@@H](O)[C@H](O)[C@H]2O[C@H]2C[C@](C)(N)[C@H](O)[C@H](C)O2)Oc2ccc(cc2Cl)[C@H]1O [Vancomycin],patients in whom diarrhea returns after discontinuing antibiotic treatment,CDAD or PMC,about 20%
same,"therapy effective, share of patients who suffer from CDAD or PMC",CDAD or PMC,about 80%
αGal(1-3)βGal(1-4)βGlc [SYNSORB 90],neutralization of toxin A activity,C. difficile toxin A [2],more than 75%
same,neutralization of toxin A activity (in words),"C. difficile toxin A [1]; purified toxin A, hemagglutination vs controls without SYNSORB",as effective at neutralizing toxin A activity
βGal(1-4)βGlcNAc [SYNSORB 34],binding to toxin A (criterion: titer reduced by greater than 50%),C. difficile toxin A [3],appear not to bind toxin A
αGal(1-4)βGal(1-4)βGlc [SYNSORB 68],binding to toxin A (criterion: titer reduced by greater than 50%),C. difficile toxin A [3],bind toxin A
αNeuAc(2-6)βGal(1-4)βGlc [SYNSORB 89],binding to toxin A (criterion: titer reduced by greater than 50%),C. difficile toxin A [3],appear not to bind toxin A
